Experimental data published in the supplement of paper PMC10307832.

What was measured:
Experiment in all cases: relative viability (nuclei count vs DMSO), 5 days (fraction); higher = more cells survive
NCI-H1734 = tested on: NCI-H1734
In short: (§1)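 Relative viability was taken as the ratio of nuclei in treated wells to nuclei in vehicle wells. Lung cancer cell lines in 1536-well plates received compounds by pin tool one day after seeding, either one drug alone or a fixed anchor-drug dose plus five library-drug doses (not always all listed) in √10 steps. Nuclei were counted on 4× images after 5 days of treatment, and values are medians of duplicate plates.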

NCI-H358 = tested on: NCI-H358
In short: as §1

NCI-H2228 = tested on: NCI-H2228
In short: as §1

COR-L23 = tested on: COR-L23
In short: as §1

NCI-H1355 = tested on: NCI-H1355
In short: as §1

NCI-H1792 = tested on: NCI-H1792
In short: as §1

NCI-H1395 = tested on: NCI-H1395
In short: as §1

HCC-15 = tested on: HCC-15
In short: as §1

HARA = tested on: HARA
In short: as §1

NCI-H1993 = tested on: NCI-H1993
In short: as §1

NCI-H838 = tested on: NCI-H838
In short: as §1

**Q.** Which relative viability (NCI-H1734; first compound 0.01 µM) does the source give for O=c1cc(N2CCOCC2)oc2c(-c3cccc4c3sc3ccccc34)cccc12 + CCNC(=O)c1noc(-c2cc(C(C)C)c(O)cc2O)c1-c1ccc(CN2CCOCC2)cc1 [Luminespib] (partner 0.01 µM) here?
**A.** 0.199

**Q.** What about the relative viability (NCI-H1734; first compound 0.03162 µM) of the same compound?
**A.** 0.168

**Q.** What about the relative viability (NCI-H1734; first compound 0.1 µM) of the same compound?
**A.** 0.216

**Q.** And the relative viability (NCI-H1734; first compound 0.3162 µM)?
**A.** 0.187

**Q.** And the relative viability (NCI-H1734; first compound 1 µM)?
**A.** 0.179

**Q.** And the relative viability (NCI-H358; first compound 0.01 µM)?
**A.** 0.235

**Q.** What about the relative viability (NCI-H358; first compound 0.03162 µM) of the same compound?
**A.** 0.397

**Q.** And the relative viability (NCI-H358; first compound 0.1 µM)?
**A.** 0.33

**Q.** What about the relative viability (NCI-H358; first compound 0.3162 µM) of the same compound?
**A.** 0.229

**Q.** And the relative viability (NCI-H358; first compound 1 µM)?
**A.** 0.332

**Q.** What about the relative viability (NCI-H2228; first compound 0.01 µM) of the same compound?
**A.** 0.151

**Q.** And the relative viability (NCI-H2228; first compound 0.03162 µM)?
**A.** 0.112

**Q.** What about the relative viability (NCI-H2228; first compound 0.1 µM) of the same compound?
**A.** 0.125

**Q.** What about the relative viability (NCI-H2228; first compound 0.3162 µM) of the same compound?
**A.** 0.191

**Q.** And the relative viability (NCI-H2228; first compound 1 µM)?
**A.** 0.133

**Q.** What about the relative viability (COR-L23; first compound 0.01 µM) of the same compound?
**A.** 0.763

**Q.** And the relative viability (COR-L23; first compound 0.03162 µM)?
**A.** 0.654

**Q.** And the relative viability (COR-L23; first compound 0.1 µM)?
**A.** 0.724

**Q.** What about the relative viability (COR-L23; first compound 0.3162 µM) of the same compound?
**A.** 0.608

**Q.** And the relative viability (COR-L23; first compound 1 µM)?
**A.** 0.779

**Q.** What about the relative viability (NCI-H1355; first compound 0.01 µM) of the same compound?
**A.** 0.815

**Q.** And the relative viability (NCI-H1355; first compound 0.03162 µM)?
**A.** 0.708

**Q.** And the relative viability (NCI-H1355; first compound 0.1 µM)?
**A.** 0.669

**Q.** And the relative viability (NCI-H1355; first compound 0.3162 µM)?
**A.** 0.728

**Q.** What about the relative viability (NCI-H1355; first compound 1 µM) of the same compound?
**A.** 0.688

**Q.** And the relative viability (NCI-H1792; first compound 0.01 µM)?
**A.** 0.502

**Q.** And the relative viability (NCI-H1792; first compound 0.03162 µM)?
**A.** 0.359

**Q.** And the relative viability (NCI-H1792; first compound 0.1 µM)?
**A.** 0.576

**Q.** What about the relative viability (NCI-H1792; first compound 0.3162 µM) of the same compound?
**A.** 0.497

**Q.** What about the relative viability (NCI-H1792; first compound 1 µM) of the same compound?
**A.** 0.531

**Q.** And the relative viability (NCI-H1395; first compound 0.01 µM)?
**A.** 0.726

**Q.** What about the relative viability (NCI-H1395; first compound 0.03162 µM) of the same compound?
**A.** 0.75

**Q.** What about the relative viability (NCI-H1395; first compound 0.1 µM) of the same compound?
**A.** 0.683

**Q.** What about the relative viability (NCI-H1395; first compound 0.3162 µM) of the same compound?
**A.** 0.622

**Q.** And the relative viability (NCI-H1395; first compound 1 µM)?
**A.** 0.532

**Q.** And the relative viability (HCC-15; first compound 0.01 µM)?
**A.** 0.301

**Q.** And the relative viability (HCC-15; first compound 0.03162 µM)?
**A.** 0.294

**Q.** And the relative viability (HCC-15; first compound 0.1 µM)?
**A.** 0.604

**Q.** What about the relative viability (HCC-15; first compound 0.3162 µM) of the same compound?
**A.** 0.339

**Q.** And the relative viability (HCC-15; first compound 1 µM)?
**A.** 0.344

**Q.** And the relative viability (HARA; first compound 0.01 µM)?
**A.** 0.682

**Q.** And the relative viability (HARA; first compound 0.03162 µM)?
**A.** 0.679

**Q.** What about the relative viability (HARA; first compound 0.1 µM) of the same compound?
**A.** 0.806

**Q.** What about the relative viability (HARA; first compound 0.3162 µM) of the same compound?
**A.** 0.771

**Q.** And the relative viability (HARA; first compound 1 µM)?
**A.** 0.905

**Q.** And the relative viability (NCI-H1993; first compound 0.01 µM)?
**A.** 0.585

**Q.** And the relative viability (NCI-H1993; first compound 0.03162 µM)?
**A.** 0.891

**Q.** What about the relative viability (NCI-H1993; first compound 0.1 µM) of the same compound?
**A.** 0.984

**Q.** What about the relative viability (NCI-H1993; first compound 0.3162 µM) of the same compound?
**A.** 0.697

**Q.** What about the relative viability (NCI-H1993; first compound 1 µM) of the same compound?
**A.** 0.813

**Q.** What about the relative viability (NCI-H838; first compound 0.01 µM) of the same compound?
**A.** 0.347

**Q.** What about the relative viability (NCI-H838; first compound 0.03162 µM) of the same compound?
**A.** 0.362

**Q.** And the relative viability (NCI-H838; first compound 0.1 µM)?
**A.** 0.406

**Q.** What about the relative viability (NCI-H838; first compound 0.3162 µM) of the same compound?
**A.** 0.294
